Data set [1] is described as follows: Stability in mouse liver microsomes. As to conditions: 1.00 μM compound, NADPH; for half-life at 1 μM: liver microsomes, pH 7.4, 0.5 mg/mL microsomal protein, read-out: Half life T1/2, mouse liver microsomes. The format is in vitro ADME. The method, then: (§1) Test Example 3: Test of Stability of Compounds in Liver Microsome
(§2) Test purpose: To determine the stability of some of the compounds of the present disclosure in mouse, dog and human liver microsomes by LC-MS/MS method.
(§3) Test materials: The test drugs were in-house prepared example compounds of the present disclosure; the positive reference compound SNDX-5613 was prepared by the method of Example 253 in patent WO2017214367; the control compound 1 was prepared by the method of Example 64 in WO2017214367; liver microsomes were purchased from CORNING.
(§4) The total volume of each incubation system was approximately 45 μL, and the medium was 100 mM phosphate buffer (PBS, pH 7.4), including liver microsomal protein at a final concentration of 0.5 mg/mL, 1.00 μM compound and 2.00 mM NADPH, and the organic phase content was <1%. Incubation was performed in a 37° C. incubator, and 135 μL of ice-cold acetonitrile was added after 0, 5, 15, 30 and 60 min of reaction to terminate the reaction. The positive control group was incubated with 1.00 μM Ketanserin, 0.5 mg/mL liver microsomal protein and 2.00 mM NADPH in a 37° C. incubator for 0, 5, 15, 30 and 60 min respectively, and then 135 μL of ice-cold acetonitrile was added to terminate the reaction. The 96-well plates were shaken at 600 rpm for 10 min and then centrifuged at 4700 rpm at 4° C. for 15 min. 80 μL of supernatant was mixed with 320 μL of pure water, and the remaining amount of the compound was detected by LC-MS/MS method. The in vitro half life (T½) and intrinsic clearance (CLint) were calculated according to the following formula:
(§5) Intrinsic clearance (Clint)=(0.693/T1/2)×(1/liver microsome concentration)×conversion factor. k is the linear regression slope of the remaining percentage of the ln compound-incubation time.

Data set [2] in a line: Pharmacokinetics test in mouse. It counts as in vivo, ICR mice. As to conditions: mice, p.o. 10 mg/kg; for F, %: 1 mg/kg for intravenous injection. The text has this:
Test Example 4. In Vivo Pharmacokinetic Study
Test purpose: To determine the pharmacokinetic properties of some of the example compounds of the present disclosure in mice, rats and dogs after single intravenous injection (i.v.) and oral gavage (i.g.) administration by LC-MS/MS method.
Research methods: An appropriate amount of compound was weighed and prepared into a transparent clear solution of a certain concentration using 0.9% sodium chloride injection and 1.5 equivalents of 1M HCl aqueous solution based on the molar number of the compound. After SPF male ICR mice, SPF male SD rats, and male beagle dogs were fasted overnight, the test compound solution was given by intravenous injection and oral gavage at the corresponding dose. Anticoagulated whole blood of the test animals was collected at 5 min, 15 min, 30 min, 1 h, 2 h, 4 h, 8 h, and 24 h after administration, and plasma was separated. Plasma samples at each time point were detected by LC-MS/MS, and the plasma concentration of the compound was determined by the standard curve correction method. Phoenix WinNonlin 5.2 non-compartmental model was used to calculate the pharmacokinetic parameters of terminal elimination half-life (t½), blood peak concentration (Cmax), area under the concentration-time curve (AUC), clearance (CL), and bioavailability (F %), which was directly obtained from the serum concentration results. Blood drug concentration and pharmacokinetic parameters are expressed as mean±standard deviation (X±SD). The specific test protocols for each species are as follows.
Pharmacokinetics Test in Mouse
Test animals: SPF male ICR mice, weighing 25-30 g, 12 mice/compound, purchased from Chengdu Dossy Experimental Animal Co., Ltd.
Test design: On the day of the test, ICR mice were randomly divided into groups according to body weight, fasted but with free water for 12-14 h one day before administration, and fed 2 h after administration.
Preparation of test compound solution: The concentration of the test compound for oral gavage was 1 mg/mL. An appropriate amount of compound was weighed and prepared into a 1 mg/mL transparent clear solution using 0.9% sodium chloride injection and 1.5 equivalents of 1M HCl aqueous solution. The concentration of the test compound for intravenous injection was 0.2 mg/mL. The 1 mg/mL transparent clear solution was diluted to a concentration of 0.2 mg/mL using 0.9% sodium chloride injection. The volume of 1 M HCl solution added was calculated as: volume of 1 M HCl solution added […]=weighed amount of compound (mg)/molecular weight×1.5×1000. The amount added during preparation must not exceed the calculated value.
The test substance was administered as follows: intravenous injection: 1 mg/kg of dose, 5 mL/kg of volume, 6 mice; oral gavage: 10 mg/kg of dose, 10 mL/kg of volume, 6 mice.
Sample collection: Blood (40-50 μl) was collected in anticoagulant tubes sprayed with EDTA-K2 through the orbital venous plexus at 5 min, 15 min, 30 min, 1 h, 2 h, 4 h, 8 h, and 24 h after administration, and centrifuged at 10,000 rpm for 20 min within 1 h (the blood was saved on wet ice before and after centrifugation). The supernatant, which was plasma, was collected and frozen in a refrigerator at −20° C. or below for LC-MS/MS analysis of Full PK of male ICR mice (2 mice per group, 4 blood collection time points per mouse, crossover).

Data set [3] in a line: Stability in human liver microsomes. It counts as in vitro ADME. As to conditions: 0.5 mg/mL microsomal protein, 1.00 μM compound, NADPH; for half-life at 1 μM: human, liver microsomes, pH 7.4, Human, read-out: Half life T1/2, human liver microsomes. The method, then:
as §1, §2, §3, §4, §5

A short description of data set [4]: Stability in dog liver microsomes. The format is in vitro ADME. The conditions noted are these: 0.5 mg/mL microsomal protein, 1.00 μM compound, NADPH; for half-life at 1 μM: dog, liver microsomes, pH 7.4, Dog, read-out: Half life T1/2, dog liver microsomes. The method, then: as §1, §2, §3, §4, §5
(In general: Liver microsomes are a subcellular fraction often used to study metabolism.)

Data set [5] concerns the target T1, hERG potassium ion channel (Homo sapiens (Human), UniProt Q12809). As to conditions: reported value of the positive reference compound; cited from earlier work.
For the next data set, the system named is OCI-AML3. Briefly: Cell proliferation inhibition (CellTiter-Glo), OCI-AML3 (NPM1 mutation). The format is cell-based. As to conditions: Homo sapiens, OCI-AML-3, 168 h, OCI-AML3 cells. Summed up:
(§6)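 CellTiter-Glo luminescence read-out (10 min RT) after 72-168 h culture at 37° C, 5% CO2; cells plated 5,000-20,000/well; compound final 1 nM-10 μM; IC50 from curve fit.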
(In general: Cellular ATP, detected with luciferase, serves as a proxy for viable cell number.)

A further data set deals with MV4-11. Briefly: Cell proliferation inhibition (CellTiter-Glo), MV4-11. It counts as cell-based. As to conditions: Homo sapiens, MV4-11, 72 h, MV4-11 cells. The method, boiled down:
as §6

The test system of a further data set is MOLM-13. Briefly: Cell proliferation inhibition (CellTiter-Glo), MOLM-13. It counts as cell-based. As to conditions: Homo sapiens, MOLM-13, 168 h, MOLM-13 cells. Summed up:
as §6

Data set [6] has as its target T1, hERG potassium ion channel. Briefly: hERG potassium channel effect test (manual patch clamp, HEK293 cells overexpressing hERG). As to conditions: for inhibition at 30 μM: human, HEK293 cells overexpressing hERG potassium ion channels, read-out: Average inhibition rate of hERG current at the highest compound tested concentration; for IC50: manual patch clamp, highest test concentration 30 μM. The format is cell-based. The method, then: Test Example 6: hERG Potassium Channel Effect Test
The hERG inhibition test was performed on some of the example compounds of the present disclosure using the manual electrophysiological patch clamp method. The cell line was derived from HEK293 cells that overexpressed hERG potassium ion channels. The specific experimental protocol was developed by PharmaCore Labs with reference to literature published in peer-reviewed journals and was performed by PharmaCore Labs in accordance with its standard experimental operating procedures. The highest test concentration was 30 μM.

The target in data set [7] is Menin/MLL-4-43 peptide interaction (Homo sapiens (Human), UniProt O00255). Briefly: Menin-MLL interaction inhibitory activity assay (fluorescence polarization competition). The format is binding. The conditions noted are these: FITC-MLL4-43-peptide, Menin recombinant protein. Summed up:
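Menin (8 nM solution) was preincubated 15 min with compound, then FITC-MLL4-43 peptide (10 nM solution) was added and shaken for 60 min at 25 °C. The buffer was 50 mM Tris pH 7.5, 50 mM NaCl, 1 mM DTT. IC50 was derived from fluorescence polarization read at 485/520 nm.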
(In general: Fluorescence polarisation rises when a labelled molecule tumbles more slowly, as on binding a larger partner.)

Where [8] appears, read: male, ICR, mouse, plasma, po, 10 mg/kg.

Values joined by “and” are separate entries in the source; they are usually repeats but may differ in a detail not shown here. Identical values can stand only once. Like-named read-outs stand apart in the source and are kept apart here.

T1 sequence (Q12809 whole entry): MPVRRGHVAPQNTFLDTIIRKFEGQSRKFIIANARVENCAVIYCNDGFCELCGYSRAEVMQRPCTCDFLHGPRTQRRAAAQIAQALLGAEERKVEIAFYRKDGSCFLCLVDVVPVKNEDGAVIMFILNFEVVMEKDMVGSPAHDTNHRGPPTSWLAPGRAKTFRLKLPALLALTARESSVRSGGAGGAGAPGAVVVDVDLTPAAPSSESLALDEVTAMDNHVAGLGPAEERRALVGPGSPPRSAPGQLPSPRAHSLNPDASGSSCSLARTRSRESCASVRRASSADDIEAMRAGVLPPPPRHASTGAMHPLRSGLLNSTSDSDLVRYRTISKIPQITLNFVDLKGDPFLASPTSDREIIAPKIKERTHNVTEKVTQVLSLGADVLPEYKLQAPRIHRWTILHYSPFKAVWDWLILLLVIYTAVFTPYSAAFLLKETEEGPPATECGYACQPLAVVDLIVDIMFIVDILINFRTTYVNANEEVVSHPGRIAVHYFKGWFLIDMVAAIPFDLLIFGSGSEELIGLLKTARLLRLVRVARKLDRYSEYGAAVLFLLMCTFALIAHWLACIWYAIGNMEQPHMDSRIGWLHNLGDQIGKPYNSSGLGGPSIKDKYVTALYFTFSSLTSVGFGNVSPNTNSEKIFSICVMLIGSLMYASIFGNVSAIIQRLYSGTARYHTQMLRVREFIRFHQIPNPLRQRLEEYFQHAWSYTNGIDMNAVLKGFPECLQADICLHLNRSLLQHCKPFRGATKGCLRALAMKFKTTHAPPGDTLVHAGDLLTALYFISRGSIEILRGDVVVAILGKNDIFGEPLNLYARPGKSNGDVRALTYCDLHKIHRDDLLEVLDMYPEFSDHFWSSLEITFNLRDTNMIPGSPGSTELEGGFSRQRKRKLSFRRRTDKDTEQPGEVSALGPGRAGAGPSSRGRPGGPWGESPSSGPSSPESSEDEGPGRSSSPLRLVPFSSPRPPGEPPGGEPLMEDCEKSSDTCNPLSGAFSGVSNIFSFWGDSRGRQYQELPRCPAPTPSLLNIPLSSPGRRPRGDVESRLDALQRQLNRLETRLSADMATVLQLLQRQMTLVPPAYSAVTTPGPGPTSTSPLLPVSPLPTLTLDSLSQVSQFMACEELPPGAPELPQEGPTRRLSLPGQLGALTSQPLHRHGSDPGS
Sequence of Menin/MLL-4-43 peptide interaction (O00255 whole entry, species assumed): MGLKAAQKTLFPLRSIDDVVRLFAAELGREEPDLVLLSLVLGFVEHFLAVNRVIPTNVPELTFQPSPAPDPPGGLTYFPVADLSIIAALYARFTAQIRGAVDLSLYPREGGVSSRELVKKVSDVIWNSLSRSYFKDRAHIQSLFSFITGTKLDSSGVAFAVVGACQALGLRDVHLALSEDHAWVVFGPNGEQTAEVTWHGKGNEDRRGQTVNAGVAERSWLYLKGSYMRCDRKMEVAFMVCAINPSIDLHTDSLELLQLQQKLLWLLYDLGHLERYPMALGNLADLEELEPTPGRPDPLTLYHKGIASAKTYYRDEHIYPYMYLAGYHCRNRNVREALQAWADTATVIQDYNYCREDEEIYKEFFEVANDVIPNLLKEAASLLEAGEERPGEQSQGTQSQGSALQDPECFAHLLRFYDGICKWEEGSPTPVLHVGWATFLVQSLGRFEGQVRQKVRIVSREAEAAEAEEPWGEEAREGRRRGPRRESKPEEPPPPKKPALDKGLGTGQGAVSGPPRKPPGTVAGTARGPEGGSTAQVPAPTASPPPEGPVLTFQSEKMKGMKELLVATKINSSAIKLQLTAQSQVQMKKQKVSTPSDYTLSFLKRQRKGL

One may read the Cmax as the maximum level reached in the sampled fluid or tissue. A word on the IC50: it is the concentration that inhibits the measured activity by half. With `CCN(C(=O)c1cc(F)ccc1Oc1cncnc1N1CC2(CCN(C[C@H]3CC[C@H](NS(=O)(=O)CC)CC3)CC2)C1)C(C)C` [SNDX-5613, reference compound], the “Half life T1/2, mouse liver microsomes” value in [1] (0.5 mg/mL microsomal protein) was 1.178 h. In data set [2], the “AUClast” value was determined as 2483 ng·h/mL; the “Cmax” value was found to be 1296 ng/mL; the “T1/2” value is 1.53 h; the “F, %” value was found to be 88%. Also, the “Half life T1/2, human liver microsomes” value in data set [3] (Human) was 0.1998 h. In [4] (Dog), the “Half life T1/2, dog liver microsomes” value amounted to 1.05 h. For the same compound, the IC50 in data set [5] was 5 to 15 µM.

One may read the GI50 as the concentration at which growth is held to half of that of the control. A lower GI50 goes with more potent growth inhibition. In the case of `CCN(C(=O)c1cc(F)ccc1Oc1nncnc1N1CC2(CCN(C[C@H]3CC[C@]4(CC3)CC(COC)(COC)C(=O)N4)CC2)C1)C(C)C` [Example 19], the half-life at 1 μM in data set [1] is more than 2 h; in data set [3], 1.35 h; in data set [4] it was more than 2 h. The GI50 in the data set with OCI-AML3 amounted to 28.5 nM; with MV4-11 it was 13.2 nM; in the data set with MOLM-13, 33.1 nM. Moreover, in data set [6], the inhibition at 30 μM is 12.8%. This compound also showed an IC50 in data set [6] of more than 30 µM.

For the compound `CCN(C(=O)c1cc(F)ccc1Oc1nncnc1N1CC2(CCN(C[C@H]3CC[C@]4(CC3)C[C@H](COC)C(=O)N4)CC2)C1)C(C)C` [Example 37-1], the half-life at 1 μM in data set [1], in data set [3] and in [4] was more than 2 h in each case. Moreover, the values for the GI50 with OCI-AML3, in the data set with MV4-11 and in the data set with MOLM-13 were 183 nM, 88.3 nM and 354 nM, respectively. The IC50 in data set [7] was 0.0129 µM; in data set [6], more than 30 µM. Moreover, in data set [6], the inhibition at 30 μM was 13.2%.

As usually defined, the AUC(0-t) is the area under the concentration-time curve up to a stated or last time point. The low end stands for low exposure, the high end for high exposure. In [2] (setting [8]), `CC(C)N(C(=O)c1cc(F)ccc1Oc1cncnc1N1CC2(CCN(C[C@H]3CC[C@@]4(CCC(=O)N4)CC3)CC2)C1)C(C)C` [Example 5] had an AUC(0-t) of 7700 ng·h/mL and a half-life of 1.37 h. Also, the Cmax in data set [2] (male, ICR, mouse, plasma, po, 10 mg/kg, read-out: Cmax) is 2620 ng/mL. In data set [2], the “AUClast” value is 8285 ng·h/mL; the “Cmax” value stood at 2535 ng/mL; the “T1/2” value is 1.91 h; the “F, %” value is 84% and 72%. Further, the GI50 with OCI-AML3 worked out at 242 nM. Further, in data set [7], the IC50 amounted to 0.034 µM. The GI50 in the data set with MV4-11 was 47.8 nM. In the data set with MOLM-13, the GI50 was found to be 46.5 nM. Besides, in data set [6], the inhibition at 30 μM was 33.1% and the IC50 was more than 30 µM.

Values taken from US20250074910A1, “MENIN INHIBITOR AND USE THEREOF” (HITGEN INC., priority 2021, published 2025).
